Assay results taken from ChEMBL document CHEMBL1128801, “Synthesis and biological evaluation of 14-alkoxymorphinans.12.1 A phenethyl analogue of the -selective opioid receptor antagonist cyprodime” (Bioorg Med Chem Lett, 1995).

Legend:
Mus musculus [1] = organism: Mus musculus; assay: Effective concentration required for in Vitro evaluation of agonist activity on mouse vas deferens preparation; assay type: functional
Mus musculus [2] = organism: Mus musculus; assay: In Vitro evaluation of antagonist activity induced by naloxone on mouse vas deferens preparation; assay type: functional
Cavia porcellus [3] = organism: Cavia porcellus; assay: In vitro evaluation of antagonistic activity induced by naloxone in guinea-pig ileum myenteric plexus preparation (GPI); assay type: functional
Mu-type opioid receptor = Mu-type opioid receptor (Cavia porcellus, UniProt P97266); assay: Binding affinity by its ability to displace [3H]DAMGO from mu receptor in homogenates of guinea pig brain; assay type: tissue-based
Rattus norvegicus = assay: Effective dose required for in vivo antinociceptive effect in rat when administered subcutaneously; assay type: functional; conditions: sc
Mus musculus [4] = organism: Mus musculus; assay: Effective concentration of compound required for in vitro agonist activity on mouse vas deferens preparation; assay type: functional
Cavia porcellus [5] = organism: Cavia porcellus; assay: Effective concentration of compound required for in vitro agonist potency in guinea-pig ileum myenteric plexus preparation (GPI); assay type: functional
Mus musculus [6] = organism: Mus musculus; assay: In vitro evaluation of antagonist activity induced by naloxone on mouse vas deferens preparation; assay type: functional
[7] = biological target: Kappa-type opioid receptor (Cavia porcellus, UniProt P41144); assay: Binding affinity by its ability to displace [3H]-U-69,593 from kappa receptor in homogenates of guinea pig brain; assay type: tissue-based
Mus musculus [8] = organism: Mus musculus; assay: Effective concentration required for in vitro evaluation of agonist activity on mouse vas deferens preparation; assay type: functional
Cavia porcellus [9] = organism: Cavia porcellus; assay: Effective concentration required for in vitro agonist potency in guinea-pig ileum myenteric plexus preparation (GPI); assay type: functional

Kappa-type opioid receptor, sequence (P41144 whole entry): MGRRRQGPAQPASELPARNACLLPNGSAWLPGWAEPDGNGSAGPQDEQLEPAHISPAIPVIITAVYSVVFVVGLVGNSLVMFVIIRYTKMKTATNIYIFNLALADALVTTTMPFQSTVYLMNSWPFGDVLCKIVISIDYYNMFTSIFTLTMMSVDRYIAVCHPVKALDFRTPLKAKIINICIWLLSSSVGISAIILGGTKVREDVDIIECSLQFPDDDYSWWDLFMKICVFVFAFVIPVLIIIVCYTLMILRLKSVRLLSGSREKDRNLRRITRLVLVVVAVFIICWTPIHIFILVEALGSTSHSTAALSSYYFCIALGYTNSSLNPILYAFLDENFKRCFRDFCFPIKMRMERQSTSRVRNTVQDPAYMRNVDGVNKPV
Mu-type opioid receptor, sequence (P97266 whole entry): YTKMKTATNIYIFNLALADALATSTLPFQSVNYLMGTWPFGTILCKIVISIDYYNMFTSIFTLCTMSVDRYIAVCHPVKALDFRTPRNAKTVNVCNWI

| Compound | Ke (Cavia porcellus [3]) [nM] | Ki (Mu-type opioid receptor) [nM] | ED50 (Rattus norvegicus) [mg/kg] | Ke (Mus musculus [6]) [nM] | Ki [7] [nM] | other results |
| --- | --- | --- | --- | --- | --- | --- |
| CC1(C)SSC(C)(C)[C@@H](NC(=O)[C@@H](N)Cc2ccc(O)cc2)C(=O)NCC(=O)N[C@@H](Cc2ccccc2)C(=O)N[C@H]1C(=O)O |  |  |  |  |  | EC50 (Mus musculus [1]): 2.8 nM; Ke (Mus musculus [2]): 20.4 nM |
| Br.COc1cccc2c1[C@]13CCN(CCc4ccccc4)C(C2)[C@]1(OC)CCC(=O)C3 | 0.54 | 0.9 | 0.037 | 1.67 | 690 | EC50 (Mus musculus [4]): 11.8 nM; EC50 (Cavia porcellus [5]): 17.4 nM |
| COc1cccc2c1[C@]13CCN(C)[C@H](C2)[C@]1(OC)CCC(=O)C3 |  | 0.7 | 0.021 |  | 1.5 |  |
| COc1cccc2c1[C@]13CCN(CC4CC4)[C@H](C2)[C@]1(OC)CCC(=O)C3 [CYPRODIME BROMIDE] |  |  |  |  | 61.1 |  |
| C[C@@H](NC(=O)[C@@H](N)Cc1ccc(O)cc1)C(=O)NCC(=O)N(C)[C@@H](Cc1ccccc1)C(=O)NCCO [DAMGO] | 1.6 |  |  | 1.9 |  | EC50 (Mus musculus [8]): 24.7 nM; EC50 (Cavia porcellus [9]): 11.8 nM |
| CN1CC[C@]23c4c5ccc(O)c4O[C@H]2[C@@H](O)C=C[C@H]3[C@H]1C5.Cl [MORPHINE HYDROCHLORIDE] |  |  | 1.8 |  |  |  |
